Experimental data published in the supplement of paper PMC10307832.

Columns and labels:
Assay in all cases: relative viability (nuclei count vs DMSO), 5 days (fraction); higher = more cells survive
Venetoclax + Crizotinib = compound: CC1(C)CCC(CN2CCN(c3ccc(C(=O)NS(=O)(=O)c4ccc(NCC5CCOCC5)c([N+](=O)[O-])c4)c(Oc4cnc5[nH]ccc5c4)c3)CC2)=C(c2ccc(Cl)cc2)C1 [Venetoclax] + C[C@@H](Oc1cc(-c2cnn(C3CCNCC3)c2)cnc1N)c1c(Cl)ccc(F)c1Cl [Crizotinib] (partner 1 µM)
Summary of the method: (§1)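 Medians of duplicate plates are given as relative viability. That measure is the nuclei count in treated wells divided by the count in vehicle wells. Counts were taken on 4× images of lung cancer cell lines in 1536-well plates, 5 days after pin-tool dosing the day after seeding with one drug alone or a fixed anchor-drug dose plus five library-drug doses (not always all listed) in √10 steps.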

Venetoclax + Decitabine = compound: CC1(C)CCC(CN2CCN(c3ccc(C(=O)NS(=O)(=O)c4ccc(NCC5CCOCC5)c([N+](=O)[O-])c4)c(Oc4cnc5[nH]ccc5c4)c3)CC2)=C(c2ccc(Cl)cc2)C1 [Venetoclax] + Nc1ncn([C@H]2C[C@H](O)[C@@H](CO)O2)c(=O)n1 [Decitabine] (partner 2 µM)
Summary of the method: as §1

Selumetinib + Tozasertib = compound: Cn1cnc2c(F)c(Nc3ccc(Br)cc3Cl)c(C(=O)NOCCO)cc21 [Selumetinib] + Cc1cc(Nc2cc(N3CCN(C)CC3)nc(Sc3ccc(NC(=O)C4CC4)cc3)n2)n[nH]1 [Tozasertib] (partner 0.1 µM)
Summary of the method: as §1

Selumetinib + Vorinostat = compound: Cn1cnc2c(F)c(Nc3ccc(Br)cc3Cl)c(C(=O)NOCCO)cc21 [Selumetinib] + O=C(CCCCCCC(=O)Nc1ccccc1)NO [Vorinostat] (partner 1 µM)
Summary of the method: as §1

Cell Line | relative viability (Venetoclax + Crizotinib; first compound 0.01 µM) | relative viability (Venetoclax + Crizotinib; first compound 0.03162 µM) | relative viability (Venetoclax + Crizotinib; first compound 0.1 µM) | relative viability (Venetoclax + Crizotinib; first compound 0.3162 µM) | relative viability (Venetoclax + Crizotinib; first compound 1 µM) | relative viability (Venetoclax + Decitabine; first compound 0.01 µM) | relative viability (Venetoclax + Decitabine; first compound 0.03162 µM) | relative viability (Venetoclax + Decitabine; first compound 0.1 µM) | relative viability (Venetoclax + Decitabine; first compound 0.3162 µM) | relative viability (Venetoclax + Decitabine; first compound 1 µM) | relative viability (Selumetinib + Tozasertib; first compound 0.02 µM) | relative viability (Selumetinib + Tozasertib; first compound 0.06325 µM) | relative viability (Selumetinib + Tozasertib; first compound 0.2 µM) | relative viability (Selumetinib + Tozasertib; first compound 0.6325 µM) | relative viability (Selumetinib + Vorinostat; first compound 0.02 µM) | relative viability (Selumetinib + Vorinostat; first compound 0.06325 µM) | relative viability (Selumetinib + Vorinostat; first compound 0.2 µM) | relative viability (Selumetinib + Vorinostat; first compound 0.6325 µM)
COR-L 105 | 0.717 | 0.638 | 0.669 | 0.738 | 0.698 | 0.581 | 0.589 | 0.694 | 0.76 | 0.652 | 0.364 | 0.316 | 0.309 | 0.322 | 0.779 | 0.829 | 0.598 | 0.47
NCI-H2009 | 0.99 | 1.01 | 0.954 | 1.01 | 0.968 | 0.441 | 0.41 | 0.345 | 0.352 | 0.358 | 0.606 | 0.502 | 0.499 | 0.384 | 0.675 | 0.717 | 0.65 | 0.377
NCI-H2023 | 0.541 | 0.737 | 0.721 | 0.552 | 0.53 | 0.218 | 0.23 | 0.23 | 0.237 | 0.234 | 0.362 | 0.317 | 0.267 | 0.253 | 0.617 | 0.554 | 0.524 | 0.559
SW 1573 | 0.81 | 0.808 | 0.752 | 0.823 | 0.732 | 0.526 | 0.553 | 0.572 | 0.475 | 0.437 | 0.15 | 0.145 | 0.174 | 0.153 | 0.652 | 0.582 | 0.703 | 0.914
NCI-H2405 | 0.856 | 0.881 | 0.771 | 0.824 | 0.79 | 0.763 | 0.683 | 0.74 | 0.717 | 0.633 | 0.734 | 0.673 | 0.692 | 0.478 | 1.18 | 1.04 | 0.818 | 0.987
HCC-44 | 0.748 | 0.852 | 0.83 | 0.778 | 0.762 | 0.938 | 0.919 | 0.87 | 0.892 | 0.949 | 1.12 | 0.93 | 0.747 | 0.701 | 1.1 | 1.05 | 1.06 | 1.07
EMC-BAC-2 | 0.687 | 0.774 | 0.779 | 0.775 | 0.71 | 0.983 | 0.989 | 0.981 | 1.02 | 0.956 | 0.383 | 0.361 | 0.349 | 0.387 | 0.928 | 0.682 | 0.607 | 0.865
NCI-H322M | 0.988 | 0.838 | 0.912 | 0.894 | 0.878 | 0.709 | 0.695 | 0.685 | 0.804 | 0.747 | 0.391 | 0.418 | 0.369 | 0.366 | 0.946 | 0.638 | 0.653 | 0.758
NCI-H358 | 0.577 | 0.609 | 0.581 | 0.837 | 0.63 | 0.18 | 0.238 | 0.226 | 0.208 | 0.205 | 0.128 | 0.0891 | 0.0985 | 0.0883 | 0.422 | 0.335 | 0.265 | 0.248
NCI-H1944 | 1.18 | 1.17 | 0.791 | 1.04 | 1.12 | 0.478 | 0.447 | 0.492 | 0.481 | 0.407 | 0.238 | 0.228 | 0.233 | 0.203 | 0.562 | 0.448 | 0.441 | 0.491
H3255 | 0.815 | 0.824 | 0.837 | 0.773 | 1.05 | 0.657 | 0.582 | 0.496 | 0.635 | 0.597 | 0.624 | 0.687 | 0.74 | 0.556 | 0.671 | 0.752 | 0.846 | 0.797
NCI-H1993 | 0.854 | 0.851 | 0.906 | 0.838 | 0.774 | 0.505 | 0.673 | 0.541 | 0.621 | 0.552 | 0.492 | 0.557 | 0.575 | 0.601 | 0.85 | 0.6 | 0.597 | 0.612
NCI-H650 | 0.725 | 0.699 |  | 0.701 | 0.641 | 0.326 | 0.311 | 0.326 | 0.31 | 0.372 | 0.85 | 0.692 | 0.864 | 0.533 | 0.552 | 0.778 | 0.72 | 0.805
NCI-H460 | 0.902 | 0.773 | 0.946 | 0.908 | 0.719 | 0.442 | 0.525 | 0.493 | 0.498 | 0.447 | 0.379 | 0.283 | 0.246 | 0.152 | 0.48 | 0.492 | 0.428 | 0.228
NCI-H1437 | 0.851 | 0.941 | 0.949 | 0.899 | 0.864 | 0.659 | 0.52 | 0.52 | 0.542 | 0.556 | 0.319 | 0.359 | 0.274 | 0.2 | 0.749 | 0.7 | 0.576 | 0.429
NCI-H2347 | 0.74 | 0.81 | 0.726 | 0.533 | 0.677 | 0.616 | 0.59 | 0.651 | 0.662 | 0.738 | 0.505 | 0.489 | 0.35 | 0.228 | 0.521 | 0.467 | 0.36 | 0.283
